Measurements taken from PubChem BioAssay (NCI).
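Values below derive from 48-hour exposures of cells grown in 96-well plates, with endpoints linearly interpolated between the two concentrations bracketing the appropriate inhibition level. TGI marks complete inhibition of growth.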

Columns and labels:
Test in all cases: NCI-60 cell line screen, 48 h
786-0 renal = system: 786-0 renal
A498 renal = system: A498 renal
A549 NSCLC = system: A549 NSCLC
ACHN renal = system: ACHN renal
BT-549 breast = system: BT-549 breast
CCRF-CEM leukemia = system: CCRF-CEM leukemia
COLO 205 colon = system: COLO 205 colon
DU-145 prostate = system: DU-145 prostate
EKVX NSCLC = system: EKVX NSCLC
HCC-2998 colon = system: HCC-2998 colon
HCT-116 colon = system: HCT-116 colon
HCT-15 colon = system: HCT-15 colon
HL-60(TB) leukemia = system: HL-60(TB) leukemia
HOP-62 NSCLC = system: HOP-62 NSCLC
HOP-92 NSCLC = system: HOP-92 NSCLC
HS 578T breast = system: HS 578T breast
HT29 colon = system: HT29 colon
IGROV1 ovarian = system: IGROV1 ovarian
K-562 leukemia = system: K-562 leukemia
KM12 colon = system: KM12 colon
LOX IMVI melanoma = system: LOX IMVI melanoma
M14 melanoma = system: M14 melanoma
MALME-3M melanoma = system: MALME-3M melanoma
MCF7 breast = system: MCF7 breast
MDA-MB-231 breast = system: MDA-MB-231 breast
MDA-MB-435 = system: MDA-MB-435
MDA-N = system: MDA-N
MOLT-4 leukemia = system: MOLT-4 leukemia
NCI-H226 lung = system: NCI-H226 lung
NCI-H23 lung = system: NCI-H23 lung
NCI-H460 lung = system: NCI-H460 lung
NCI-H522 lung = system: NCI-H522 lung
NCI/ADR-RES ovarian = system: NCI/ADR-RES ovarian
OVCAR-3 ovarian = system: OVCAR-3 ovarian
OVCAR-4 ovarian = system: OVCAR-4 ovarian
OVCAR-5 ovarian = system: OVCAR-5 ovarian
OVCAR-8 ovarian = system: OVCAR-8 ovarian
PC-3 prostate = system: PC-3 prostate
RPMI-8226 leukemia = system: RPMI-8226 leukemia
RXF 393 renal = system: RXF 393 renal
SF-268 CNS = system: SF-268 CNS
SF-295 CNS = system: SF-295 CNS
SF-539 CNS = system: SF-539 CNS
SK-MEL-2 melanoma = system: SK-MEL-2 melanoma
SK-MEL-28 melanoma = system: SK-MEL-28 melanoma
SK-MEL-5 melanoma = system: SK-MEL-5 melanoma
SK-OV-3 ovarian = system: SK-OV-3 ovarian
SN12C renal = system: SN12C renal
SNB-19 CNS = system: SNB-19 CNS
SNB-75 CNS = system: SNB-75 CNS
SR leukemia = system: SR leukemia
SW-620 colon = system: SW-620 colon
T-47D breast = system: T-47D breast
TK-10 renal = system: TK-10 renal
U251 CNS = system: U251 CNS
UACC-257 melanoma = system: UACC-257 melanoma
UACC-62 melanoma = system: UACC-62 melanoma
UO-31 renal = system: UO-31 renal
DLD-1 colon = system: DLD-1 colon
HOP-18 NSCLC = system: HOP-18 NSCLC
LXFL 529 NSCLC = system: LXFL 529 NSCLC
M19-MEL melanoma = system: M19-MEL melanoma

CC(C)(C)NC(=O)[C@H]1CC[C@H]2[C@@H]3CC=C4NC(=O)CC[C@]4(C)[C@H]3CC[C@]12C
TGI (786-0 renal): > 100 µM
TGI (A498 renal): > 100 µM
TGI (A549 NSCLC): > 100 µM
TGI (ACHN renal): > 100 µM
TGI (BT-549 breast): > 100 µM
TGI (CCRF-CEM leukemia): > 100 µM
TGI (COLO 205 colon): > 100 µM
TGI (DU-145 prostate): > 100 µM
TGI (EKVX NSCLC): > 100 µM
TGI (HCC-2998 colon): > 100 µM
TGI (HCT-116 colon): > 100 µM
TGI (HCT-15 colon): > 100 µM
TGI (HL-60(TB) leukemia): > 100 µM
TGI (HOP-62 NSCLC): > 100 µM
TGI (HOP-92 NSCLC): > 100 µM
TGI (HS 578T breast): > 100 µM
TGI (HT29 colon): > 100 µM
TGI (IGROV1 ovarian): > 100 µM
TGI (K-562 leukemia): > 100 µM
TGI (KM12 colon): > 100 µM
TGI (LOX IMVI melanoma): > 100 µM
TGI (M14 melanoma): > 100 µM
TGI (MALME-3M melanoma): > 100 µM
TGI (MCF7 breast): > 100 µM
TGI (MDA-MB-231 breast): > 100 µM
TGI (MDA-MB-435): > 100 µM
TGI (MDA-N): > 100 µM
TGI (MOLT-4 leukemia): > 100 µM
TGI (NCI-H226 lung): > 100 µM
TGI (NCI-H23 lung): > 100 µM
TGI (NCI-H460 lung): > 100 µM
TGI (NCI-H522 lung): > 100 µM
TGI (NCI/ADR-RES ovarian): > 100 µM
TGI (OVCAR-3 ovarian): > 100 µM
TGI (OVCAR-4 ovarian): > 100 µM
TGI (OVCAR-5 ovarian): > 100 µM
TGI (OVCAR-8 ovarian): > 100 µM
TGI (PC-3 prostate): > 100 µM
TGI (RPMI-8226 leukemia): > 100 µM
TGI (RXF 393 renal): > 100 µM
TGI (SF-268 CNS): > 100 µM
TGI (SF-295 CNS): > 100 µM
TGI (SF-539 CNS): > 100 µM
TGI (SK-MEL-2 melanoma): > 100 µM
TGI (SK-MEL-28 melanoma): > 100 µM
TGI (SK-MEL-5 melanoma): > 100 µM
TGI (SK-OV-3 ovarian): > 100 µM
TGI (SN12C renal): > 100 µM
TGI (SNB-19 CNS): > 100 µM
TGI (SNB-75 CNS): 99 µM
TGI (SR leukemia): > 100 µM
TGI (SW-620 colon): > 100 µM
TGI (T-47D breast): > 100 µM
TGI (TK-10 renal): > 100 µM
TGI (U251 CNS): > 100 µM
TGI (UACC-257 melanoma): > 100 µM
TGI (UACC-62 melanoma): > 100 µM
TGI (UO-31 renal): > 100 µM

CCC(=O)OC[n+]1ccc2c(C)c3[nH]c4ccc(OC)cc4c3c(C)c2c1
TGI (786-0 renal): 1.73 µM
TGI (ACHN renal): 3.76 µM
TGI (CCRF-CEM leukemia): > 100 µM
TGI (DLD-1 colon): 1.26 µM
TGI (HCT-116 colon): 1.13 µM
TGI (HL-60(TB) leukemia): 8.38 µM
TGI (HOP-18 NSCLC): 0.131 µM
TGI (HT29 colon): 1.57 µM
TGI (IGROV1 ovarian): 1.03 µM
TGI (K-562 leukemia): 23.9 µM
TGI (LXFL 529 NSCLC): 1.57 µM
TGI (M19-MEL melanoma): 1.68 µM
TGI (MALME-3M melanoma): 2.71 µM
TGI (OVCAR-5 ovarian): 1.75 µM
TGI (RPMI-8226 leukemia): 2.54 µM
TGI (TK-10 renal): 2.92 µM
